Patent publication US20250136558A1, “PYRAZINE COMPOUNDS AS IRREVERSIBLE INHIBITORS OF FLT3” (BIOMEA FUSION, INC., priority 2021, published 2025)

Tests used:
Assay type in all cases: cell-based
K-562 = test: Proliferation inhibition (CellTiter-Glo) in K-562 cells; details: Homo sapiens, K562, 96 h, K-562 CML cells, no FLT3 mutations, IC50 (4 days)
Summary of the method: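 The CML line […] (ATCC: CRL-3343) was cultured in RPMI-1640 with 10% heat-inactivated FBS and 1% Pen-Strep at 37° C. Cells were seeded at about 10,000 per 200 μL in 96-well plates, and test compound was dispensed 2 hours later at eight concentrations in duplicate. Viability was measured as ATP luminescence with CellTiter-Glo. Untreated cells (0.2% DMSO) defined 100% proliferation, and IC50 values came from four-parameter logistic fits.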

MOLM-13 = test: Proliferation inhibition (CellTiter-Glo) in MOLM-13 cells; details: Homo sapiens, 96 h, MOLM-13 AML cells, heterozygous FLT3-ITD, IC50 (4 days)
Summary of the method: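 MOLM-13 human AML cells, heterozygous for FLT3-ITD, were grown in RPMI-1640 with 10% heat-inactivated FBS and 1% Pen-Strep. About 10,000 cells in 200 μL were seeded per well of 96-well plates. After 2 hours, compounds from DMSO stocks were dispensed at eight concentrations in duplicate, with 0.2% DMSO as the untreated control. Viability was read as CellTiter-Glo ATP luminescence, and IC50 was obtained from a four-parameter logistic fit.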

MV-4-11 = test: Proliferation inhibition (CellTiter-Glo) in MV-4-11 cells; details: Homo sapiens, MV4-11, 96 h, MV-4-11 AML cells, homozygous FLT3-ITD, IC50 (4 days)
Summary of the method: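 MV-4-11 human AML cells (homozygous FLT3-ITD) grown in RPMI-1640 with 10% heat-inactivated FBS and 1% Pen-Strep were seeded at about 10,000 cells per 200 μL in 96 well plates. Two hours later, compounds were dispensed at eight concentrations in duplicate. Viability was measured by CellTiter-Glo luminescence, and IC50 values came from four-parameter logistic non-linear regression against untreated cells (0.2% DMSO).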

Work on CCc1nc(C(N)=O)c(Nc2cccc(OCCCNC(=O)[C@H](C)N(C)C(=O)/C=C/CN(C)C)c2)nc1N(C)C [Compound 118, (S,E)-5-(dimethylamino)-3-((3-(3-(2-(4-(dimethylamino)-N-methylbut-2-enamido)propanamido)propoxy)phenyl)amino)-6-ethylpyrazine-2-carboxamide] yielded an IC50 (K-562) greater than 500 nM, an IC50 (MOLM-13) of 1 to 10 nM and an IC50 (MV-4-11) of less than 1 nM.

CCc1nc(C(N)=O)c(Nc2cccc(OCCCNC(=O)[C@H](C)N(C)C(=O)/C=C/CN(C)C)c2)nc1NC [Compound 119, (S,E)-3-((3-(3-(2-(4-(dimethylamino)-N-methylbut-2-enamido)propanamido)propoxy)phenyl)amino)-6-ethyl-5 (methylamino)pyrazine-2-carboxamide] was tested, and the IC50 (K-562) was greater than 500 nM, the IC50 (MOLM-13) was 1 to 10 nM and the IC50 (MV-4-11) was 1 to 10 nM.

CCc1nc(C(N)=O)c(Nc2cccc(OCCCNC(=O)[C@H](C)N(C)C(=O)/C=C/CN(C)C)c2)nc1OC [Compound 120, (S,E)-3-((3-(3-(2-(4-(dimethylamino)-N-methylbut-2-enamido)propanamido)propoxy)phenyl)amino)-6-ethyl-5-methoxypyrazine-2-carboxamide] gave an IC50 (K-562) greater than 500 nM, an IC50 (MOLM-13) of 1 to 10 nM and an IC50 (MV-4-11) of 1 to 10 nM.

For CCc1cnc(Nc2cccc(OCCCNC(=O)[C@H](C)N(C)C(=O)/C=C/CN(C)C)c2)c(C(N)=O)n1 [Compound 121, (S,E)-3-((3-(3-(2-(4-(dimethylamino)-N-methylbut-2-enamido)propanamido)propoxy)phenyl)amino)-6-ethylpyrazine-2-carboxamide], the IC50 (K-562) was greater than 500 nM, the IC50 (MOLM-13) was 100 to 500 nM and the IC50 (MV-4-11) was 10 to 100 nM.

With CCc1nc(C(N)=O)c(Nc2cccc(OCCCNC(=O)[C@H](C)N(C)C(=O)/C=C/CN(C)C)c2)nc1NC(CC)CC [Compound 122, (S,E)-3-((3-(3-(2-(4-(dimethylamino)-N-methylbut-2-enamido)propanamido)propoxy)phenyl)amino)-6-ethyl-5-(pentan-3-ylamino)pyrazine-2-carboxamide] the IC50 (K-562) was greater than 500 nM, the IC50 (MOLM-13) was less than 1 nM and the IC50 (MV-4-11) was less than 1 nM.

CCc1nc(C(N)=O)c(Nc2cccc(OCCCNC(=O)[C@H](C)N(C)C(=O)/C=C/CN(C)C)c2)nc1NC1CCC(F)(F)CC1 [Compound 123, (S,E)-5-((4,4-difluorocyclohexyl)amino)-3-((3-(3-(2-(4-(dimethylamino)-N-methylbut-2-enamido)propanamido)propoxy)phenyl)amino)-6-ethylpyrazine-2-carboxamide] was tested, and the IC50 (K-562) was greater than 500 nM, the IC50 (MOLM-13) was 1 to 10 nM and the IC50 (MV-4-11) was less than 1 nM.

Compound CCc1nc(C(N)=O)c(Nc2cccc(OCCCNC(=O)[C@H](C)N(C)C(=O)/C=C/CN(C)C)c2)nc1NC(C)C [Compound 124, (S,E)-3-((3-(3-(2-(4-(dimethylamino)-N-methylbut-2-enamido)propanamido)propoxy)phenyl)amino)-6-ethyl-5-(isopropylamino)pyrazine-2-carboxamide] has an IC50 (K-562) greater than 500 nM, an IC50 (MOLM-13) of less than 1 nM and an IC50 (MV-4-11) of 1 to 10 nM.

Compound CCc1nc(C(N)=O)c(Nc2cccc(OCCCNC(=O)[C@H](C)N(C)C(=O)/C=C/CN(C)C)c2)nc1C1CC1 [Compound 125, (S,E)-5-cyclopropyl-3-((3-(3-(2-(4-(dimethylamino)-N-methylbut-2-enamido)propanamido)propoxy)phenyl)amino)-6-ethylpyrazine-2-carboxamide] has an IC50 (K-562) greater than 500 nM, an IC50 (MOLM-13) of 10 to 100 nM and an IC50 (MV-4-11) of 1 to 10 nM.

For CCc1nc(C(N)=O)c(Nc2cccc(OCCCNC(=O)[C@H](C)N(C)C(=O)/C=C/CN(C)C)c2)nc1C [Compound 126, (S,E)-3-((3-(3-(2-(4-(dimethylamino)-N-methylbut-2-enamido)propanamido)propoxy)phenyl)amino)-6-ethyl-5-methylpyrazine-2-carboxamide], the IC50 (K-562) was greater than 500 nM, the IC50 (MOLM-13) was 10 to 100 nM and the IC50 (MV-4-11) was 1 to 10 nM.

With CC#CC(=O)N(C)[C@@H](C)C(=O)NCCCOc1cc(F)cc(Nc2nc(NC3CCOCC3)c(CC)nc2C(N)=O)c1 [Compound 128, (S)-6-ethyl-3-((3-fluoro-5-(3-(2-(N-methylbut-2-ynamido)propanamido)propoxy)phenyl)amino)-5-((tetrahydro-2H-pyran-4-yl)amino)pyrazine-2-carboxamide] the IC50 (K-562) was greater than 500 nM, the IC50 (MOLM-13) was 1 to 10 nM and the IC50 (MV-4-11) was 1 to 10 nM.

For CCc1nc(C(N)=O)c(Nc2cc(F)cc(OCCCNC(=O)[C@H](C)N(C)C(=O)/C=C/CN(C)C)c2)nc1NC1CCOCC1 [Compound 129, (S,E)-3-((3-(3-(2-(4-(Dimethylamino)-N-methylbut-2-enamido)propanamido)propoxy)-5-fluorophenyl)amino)-6-ethyl-5-((tetrahydro-2H-pyran-4-yl)amino)pyrazine-2-carboxamide], the IC50 (K-562) was greater than 500 nM, the IC50 (MOLM-13) was less than 1 nM and the IC50 (MV-4-11) was less than 1 nM.

For C[C@@H](C(=O)NCCCOc1cccc(Nc2nc(NC3CCOCC3)cnc2C(N)=O)c1)N(C)C(=O)/C=C/CN(C)C [Compound 130, (S,E)-3-((3-(3-(2-(4-(dimethylamino)-N-methylbut-2-enamido)propanamido)propoxy)phenyl)amino)-5-((tetrahydro-2H-pyran-4-yl)amino)pyrazine-2-carboxamide], the IC50 (K-562) was greater than 500 nM, the IC50 (MOLM-13) was 10 to 100 nM and the IC50 (MV-4-11) was 1 to 10 nM.

Work on CCc1nc(C(N)=O)c(Nc2cc(CCNC(=O)[C@H](C(C)C)N(C)C(=O)/C=C/CN(C)C)cc(OC)c2)nc1NC1CCOCC1 [Compound 131, (S,E)-3-((3-(2-(2-(4-(dimethylamino)-N-methylbut-2-enamido)-3-methylbutanamido)ethyl)-5-methoxyphenyl)amino)-6-ethyl-5-((tetrahydro-2H-pyran-4-yl)amino)pyrazine-2-carboxamide] yielded an IC50 (K-562) greater than 500 nM, an IC50 (MOLM-13) of 10 to 100 nM and an IC50 (MV-4-11) of 1 to 10 nM.

Compound Cc1nc(C(N)=O)c(Nc2cccc(OCCCNC(=O)[C@H](C)N(C)C(=O)/C=C/CN(C)C)c2)nc1NC1CCOCC1 [Compound 132, (S,E)-3-((3-(3-(2-(4-(dimethylamino)-N-methylbut-2-enamido)propanamido)propoxy)phenyl)amino)-6-methyl-5-((tetrahydro-2H-pyran-4-yl)amino)pyrazine-2-carboxamide] has an IC50 (K-562) greater than 500 nM, an IC50 (MOLM-13) of 1 to 10 nM and an IC50 (MV-4-11) of less than 1 nM.

For C[C@@H](C(=O)NCCCOc1cccc(Nc2nc(NC3CCOCC3)c(C3CC3)nc2C(N)=O)c1)N(C)C(=O)/C=C/CN(C)C [Compound 133, (S,E)-6-cyclopropyl-3-((3-(3-(2-(4-(dimethylamino)-N-methylbut-2-enamido)propanamido)propoxy)phenyl)amino)-5-((tetrahydro-2H-pyran-4-yl)amino)pyrazine-2-carboxamide], the IC50 (K-562) was greater than 500 nM, the IC50 (MOLM-13) was 1 to 10 nM and the IC50 (MV-4-11) was less than 1 nM.

With CCc1nc(C(N)=O)c(Nc2cccc(OCCCNC(=O)[C@H](C)N(C)C(=O)/C=C/CN3CCC3)c2)nc1NC1CCOCC1 [Compound 134, (S,E)-3-((3-(3-(2-(4-(azetidin-1-yl)-N-methylbut-2-enamido)propanamido)propoxy)phenyl)amino)-6-ethyl-5-((tetrahydro-2H-pyran-4-yl)amino)pyrazine-2-carboxamide] the IC50 (K-562) was greater than 500 nM, the IC50 (MOLM-13) was 1 to 10 nM and the IC50 (MV-4-11) was less than 1 nM.

CCc1nc(C(N)=O)c(Nc2cccc(CCNC(=O)[C@H](C)N(C)C(=O)/C=C/CN(C)C)c2)nc1NC1CCOCC1 [Compound 135, (S,E)-3-((3-(2-(2-(4-(dimethylamino)-N-methylbut-2-enamido)propanamido)ethyl)phenyl)amino)-6-ethyl-5-((tetrahydro-2H-pyran-4-yl)amino)pyrazine-2-carboxamide] showed an IC50 (K-562) greater than 500 nM, an IC50 (MOLM-13) of less than 1 nM and an IC50 (MV-4-11) of less than 1 nM.
